Source: patent publication US6905861B2, “D-aminoacylases, method for producing the same, and method for producing D-amino acids using the same” (Daicel Chemical Industries, Ltd., priority 1998, dated 2005)

Legend:
[1] = test system: D-aminoacylase; assay: Effects of various metal salts and reagents on residual enzyme activity; assay type: biochemical, Hypomyces mycophilus IFO 6785; details: for Relative activity (%): pH 9.5; for effect on the enzyme (in words): summary of Tables 6 and 7
[2] = test system: D-aminoacylase (crude enzyme) of Menisporopsis novaezelandiae IFO 9179; assay: Crude enzyme activity for each N-Ac-D-amino acid substrate; assay type: biochemical; details: Menisporopsis novaezelandiae IFO 9179 crude enzyme; 20 mM substrate, 1 mM CoCl2, 50 mM phosphate buffer pH 7.0
Description: (§1) Auricularia auriculajudae IFO 5949, Pythium aphanidermaatum IFO 7030, and Menisporopsis novaezelandiae IFO 9179 were each inoculated into sterilized media (100 ml each) (Czapek Dox Broth for IFO 5949, YM1 medium for IFO 7030, and POTATO DEXTROSE BROTH for IFO 9179) in 500-ml Erlenmeyer flasks. The fungi were cultured on a rotary shaker at 210 rpm at 24° C. for 7 days and collected by centrifugation using a […] centrifuge with a RPR10-2 rotor at 8,000 rpm (12,500×g) for 20 min. […] Disrupted cells thus obtained were centrifuged using a […] centrifuge with a RPR20-2 rotor at 17,500 rpm (38,000×g) for 30 min at 4° C. to obtain the supernatant as the crude enzyme. […] Figures in the table denote the amount (mM) of D-amino acids produced from the corresponding N-acetyl-D-amino acids. The D-aminoacylase activity was detected in all the strains tested, producing D-amino acid from the corresponding N-acetyl-D-amino acid.

[3] = test system: D-aminoacylase (crude enzyme) of Auricularia auriculajudae IFO 5949; assay: as above; assay type: biochemical; details: Auricularia auriculajudae IFO 5949 crude enzyme; 20 mM substrate, 1 mM CoCl2, 50 mM phosphate buffer pH 7.0
Description: as §1

[4] = test system: D-aminoacylase; assay: Substrate specificity of purified D-aminoacylase (TNBS method); assay type: biochemical, Hypomyces mycophilus IFO 6785; details: for percentage of the specific activity compared with that for N-acetyl-D-methionine taken as 100%, D-enantiomer / percentage of the specific activity compared with that for N-acetyl-D-methionine taken as 100%, L-enantiomer: 20 mM substrate, 50 mM Tris-HCl pH 7.5, 30° C., 20 min; for activity of the enzyme for the substrate (in words): summary of Table 5
Description: The enzyme activity was assayed by determining the amount of amino acid produced using the TNBS method and the HPLC method. In the TMBS method, 100 mM Na2B4O7 (0.5 ml) was added to a sample solution containing amino acid (0.5 ml), 20 μl of 110 mM TNBS (trinitrobenzenesulfonic acid) was then added, and the resulting mixture was quickly stirred. After 5 min, 100 mM NaH2PO4 containing 1.5 mM Na2SO3 (2 ml) was added to the reaction mixture to terminate the color reaction, and the absorbance at 420 nm was measured. HPLC was performed by subjecting a sample solution containing amino acid to high-performance liquid chromatography using an ODS column (column, Wakosil II 5C18 (4.6 dia.×250 mm) (Wako Pure Chemical); eluent, CH3CN/50 mM KH2PO4. H3PO4 (pH 2.5)=2:8; detection, A280 nm; and flow rate, 1.0 ml/min). The retention times were 3.5 min for D-tryptophan and 9.8 min for N-acetyl-D-tryptophan. Using D-tryptophan as the assay standard, one unit (or U) of the enzyme was defined as the amount of the enzyme required to produce 1 μmol of D-tryptophan at 30° C. for 1 min.
Substrate specificity of the enzyme was expressed as the percentage of the specific activity compared with that for N-acetyl-D-methionine taken as 100%. N-chloroacetyl-D-phenylalanine, N-acetyl-D-valine, N-acetyl-D-phenylalanine, N-acetyl-D-tryptophan, N-acetyl-D-leucine, N-acetyl-L-valine, N-acetyl-L-phenylalanine, N-acetyl-L-tryptophan, and N-acetyl-L-leucine substrates were used for the comparison. The enzyme reaction was performed in 50 mM Tris-HCl (pH 7.5) containing 1 µl of the enzyme solution and 20 mM of each substrate (total volume 1.0 ml) at 30° C. for 20 min, and terminated by adding 0.5 ml of a TCA reaction terminating solution according to Tsai et al. (consisting of 110 mM trichloroacetic acid, 220 mM sodium acetate, and 330 mM acetic acid). The enzyme activity was assayed by the TNBS method as described in Example 4(2).

[5] = test system: Hypomyces mycophilus ATCC 76474; assay: D-amino acid production from N-acetyl-D-amino acid by washed fungal cells; assay type: cell-based; details: Hypomyces mycophilus ATCC 76474 cells; 0.1% substrate, Tris-HCl pH 7.5, 30° C., 24 hours
Description: (§2) A platinum loopful of Hypomyces aurantius IFO 6847 strain, Hypomyces broomeanus IFO 9164 strain, Hypomyces rosellus IFO 6911 strain, Hypomyces chrysospermus IFO 6817 strain, Hypomyces sepulcralis IFO 9102 strain, Hypomyces subiculosus IFO 6892 strain, Hypomyces mycophilus ATCC 76474 or IFO 6785 strain, or Fusarium solani IFO 9974 or IFO 9975 strain was inoculated into 25 ml of YM medium (containing 0.3% yeast extract, 0.3% malt extract, 0.5% peptone, and 2.0% glucose, pH 6.0) in a 500-ml shouldered flask. The fungi were shake-cultured at 24° C. for 3 days. After culturing, a 5-ml aliquot of the culture medium was centrifuged in a refrigerated centrifuge to collect the fungal cells. The cells were washed with physiological saline solution (5 ml) and collected by centrifugation again. A reaction solution (containing 0.1% N-acetyl-D-amino acid shown in Table 1 below in Tris-HCl buffer, pH 7.5) was then added to the cells thus collected. The mixture was incubated in a 5-ml test tube with shaking at 30° C. for 24 hours.
(§3) D-Amino acid thus produced was determined by high-performance liquid chromatography (column, CROWNPAK CR (Daicel Chemical); column temperature, 26° C.; cooled in ice for only valine; mobile phase, HClO4 aqueous solution, pH 2.0; flow rate, 1 ml/min; and detection, 200 nm).

[6] = test system: Hypomyces mycophilus IFO 6785 strain; assay: as above; assay type: cell-based; details: Hypomyces mycophilus IFO 6785 cells; 0.1% substrate, Tris-HCl pH 7.5, 30° C., 24 hours
Description: as §2, §3

[7] = test system: Hypomyces rosellus IFO 6911 strain; assay: as above; assay type: cell-based; details: Hypomyces rosellus IFO 6911 cells; 0.1% substrate, Tris-HCl pH 7.5, 30° C., 24 hours
Description: as §2, §3

[8] = test system: Hypomyces sepulcralis IFO 9102 strain; assay: as above; assay type: cell-based; details: Hypomyces sepulcralis IFO 9102 cells; 0.1% substrate, Tris-HCl pH 7.5, 30° C., 24 hours
Description: as §2, §3

[9] = test system: Hypomyces subiculosus IFO 6892 strain; assay: as above; assay type: cell-based; details: Hypomyces subiculosus IFO 6892 cells; 0.1% substrate, Tris-HCl pH 7.5, 30° C., 24 hours
Description: as §2, §3

[10] = test system: Fusarium solani IFO 9974; assay: as above; assay type: cell-based; details: Fusarium solani IFO 9974 cells; 0.1% substrate, Tris-HCl pH 7.5, 30° C., 24 hours
Description: as §2, §3

[11] = test system: Hypomyces broomeanus IFO 9164 strain; assay: as above; assay type: cell-based; details: Hypomyces broomeanus IFO 9164 cells; 0.1% substrate, Tris-HCl pH 7.5, 30° C., 24 hours
Description: as §2, §3

[12] = test system: Hypomyces chrysospermus IFO 6817 strain; assay: as above; assay type: cell-based; details: Hypomyces chrysospermus IFO 6817 cells; 0.1% substrate, Tris-HCl pH 7.5, 30° C., 24 hours
Description: as §2, §3

[13] = test system: Fusarium solani IFO 9975 strain; assay: as above; assay type: cell-based; details: Fusarium solani IFO 9975 cells; 0.1% substrate, Tris-HCl pH 7.5, 30° C., 24 hours
Description: as §2, §3

[14] = test system: Hypomyces aurantius IFO 6847 strain; assay: as above; assay type: cell-based; details: Hypomyces aurantius IFO 6847 cells; 0.1% substrate, Tris-HCl pH 7.5, 30° C., 24 hours
Description: as §2, §3

[15] = metal ion 1 mM, kept at 40° C. for 30 min, residual activity, no addition = 100
[16] = compound 1 mM, kept at 40° C. for 30 min, residual activity, no addition = 100

[Ca+2].[Cl-].[Cl-] [CaCl2]
Relative activity (%) [1, 15]: 104%

[Cl-].[Cl-].[Co+2] [CoCl2]
Relative activity (%) [1]: 63.1%

[Co+2] [Co^2+]
effect on the enzyme (in words) [1]: inhibited

O=S(=O)([O-])[O-].[Cu+2] [CuSO4]
Relative activity (%) [1, 16]: 20.4%

[Cu+2] [Cu^2+]
effect on the enzyme (in words) [1]: inhibited

O=C(O)CN(CCN(CC(=O)O)CC(=O)O)CC(=O)O [EDTA]
Relative activity (%) [1, 16]: 96.0% | effect on the enzyme (in words) [1]: not being inhibited

O=C(O)CN(CCOCCOCCN(CC(=O)O)CC(=O)O)CC(=O)O [EGTA]
Relative activity (%) [1, 16]: 90.9%

[Cl][Hg][Cl] [HgCl2]
Relative activity (%) [1]: 13.4%

[Hg+2] [Hg^2+]
effect on the enzyme (in words) [1]: inhibited

NO [Hydroxylamine]
Relative activity (%) [1, 16]: 96.2%

NC(=O)CI [Iodoacetamide]
Relative activity (%) [1]: 185% | effect on the enzyme (in words) [1]: activated

[Cl-].[K+] [KCl]
Relative activity (%) [1, 15]: 102%

[Cl-].[Cl-].[Mg+2] [MgCl2]
Relative activity (%) [1]: 98.0%

[Cl][Mn][Cl] [MnCl2]
Relative activity (%) [1, 15]: 100%

CC(=O)N[C@H](CC(=O)O)C(=O)O [N-Acetyl-D-aspartic acid]
amount of D-amino acids produced from the corresponding N-acetyl-D-amino acids [2]: 0.66 mM | amount of D-amino acids produced from the corresponding N-acetyl-D-amino acids [3]: 1.10 mM

CC(=O)N[C@H](CC(N)=O)C(=O)O [N-acetyl-D-asparagine]
percentage of the specific activity compared with that for N-acetyl-D-methionine taken as 100%, D-enantiomer [4]: 0%

CC[C@@H](C)[C@@H](NC(C)=O)C(=O)O [N-acetyl-D-isoleucine]
percentage of the specific activity compared with that for N-acetyl-D-methionine taken as 100%, D-enantiomer [4]: 0%

CC(=O)N[C@H](CC(C)C)C(=O)O [N-acetyl-D-leucine]
amount of D-amino acids produced from the corresponding N-acetyl-D-amino acids [3]: 2.68 mM | D-amino acid produced from N-acetyl-D-amino acid [5]: 0.11 mg/mL | D-amino acid produced from N-acetyl-D-amino acid [6]: 0.55 mg/mL | D-amino acid produced from N-acetyl-D-amino acid [7]: 0.3 mg/mL | D-amino acid produced from N-acetyl-D-amino acid [8]: 1.60 mg/mL | D-amino acid produced from N-acetyl-D-amino acid [9]: 0.10 mg/mL | D-amino acid produced from N-acetyl-D-amino acid [10]: 0.14 mg/mL | D-amino acid produced from N-acetyl-D-amino acid [11]: 0 mg/mL | D-amino acid produced from N-acetyl-D-amino acid [12]: 1.05 mg/mL | D-amino acid produced from N-acetyl-D-amino acid [13]: 0.21 mg/mL | D-amino acid produced from N-acetyl-D-amino acid [14]: 0 mg/mL | percentage of the specific activity compared with that for N-acetyl-D-methionine taken as 100%, D-enantiomer [4]: 77.5% | activity of the enzyme for the substrate (in words) [4]: very active

CC(=O)N1CCC[C@@H]1C(=O)O [N-acetyl-D-proline]
percentage of the specific activity compared with that for N-acetyl-D-methionine taken as 100%, D-enantiomer [4]: 0%

CC(=O)N[C@@H](CC(C)C)C(=O)O [N-acetyl-L-leucine]
percentage of the specific activity compared with that for N-acetyl-D-methionine taken as 100%, L-enantiomer [4]: 0% | activity of the enzyme for the substrate (in words) [4]: inactive

CSCC[C@H](NC(C)=O)C(=O)O [N-acetyl-L-methionine]
percentage of the specific activity compared with that for N-acetyl-D-methionine taken as 100%, L-enantiomer [4]: 0% | activity of the enzyme for the substrate (in words) [4]: inactive

CC(=O)N[C@@H](Cc1ccccc1)C(=O)O [N-acetyl-L-phenylalanine]
percentage of the specific activity compared with that for N-acetyl-D-methionine taken as 100%, L-enantiomer [4]: 0% | activity of the enzyme for the substrate (in words) [4]: inactive

CC(=O)N[C@@H](Cc1c[nH]c2ccccc12)C(=O)O [N-acetyl-L-tryptophan]
percentage of the specific activity compared with that for N-acetyl-D-methionine taken as 100%, L-enantiomer [4]: 0% | activity of the enzyme for the substrate (in words) [4]: inactive

CC(=O)N[C@H](C(=O)O)C(C)C [N-acetyl-L-valine]
percentage of the specific activity compared with that for N-acetyl-D-methionine taken as 100%, L-enantiomer [4]: 0% | activity of the enzyme for the substrate (in words) [4]: inactive

O=C(N[C@H](Cc1ccccc1)C(=O)O)c1ccccc1 [N-benzoyl-D-phenylalanine]
percentage of the specific activity compared with that for N-acetyl-D-methionine taken as 100%, D-enantiomer [4]: 0%

O=C(CCl)N[C@H](Cc1ccccc1)C(=O)O [N-chloroacetyl-D-phenylalanine]
percentage of the specific activity compared with that for N-acetyl-D-methionine taken as 100%, D-enantiomer [4]: 708% | activity of the enzyme for the substrate (in words) [4]: especially active

CCN1C(=O)C=CC1=O [N-ethylmaleimide]
Relative activity (%) [1, 16]: 15.2%

[Cl][Ni][Cl] [NiCl2]
Relative activity (%) [1]: 57.7%

O=C(O)c1cc[c]([Hg][Cl])cc1 [P-Chloromercuribenzoic acid]
Relative activity (%) ([1]; compound 0.5 mM, kept at 40° C. for 30 min, residual activity, no addition = 100): 99.6%

O=S(=O)(F)Cc1ccccc1 [PMSF, phenyl methyl sulfonyl fluoride]
Relative activity (%) [1]: 94.2%

[Cl-].[Cl-].[Zn+2] [ZnCl2]
Relative activity (%) [1]: 26.2%

O=S(=O)([O-])[O-].[Zn+2] [ZnSO4]
Relative activity (%) [1, 16]: 11.6%

[Zn+2] [Zn^2+]
effect on the enzyme (in words) [1]: inhibited

c1cnc2c(c1)ccc1cccnc12 [o-Phenanthroline]
Relative activity (%) [1, 16]: 78.8%

Penicillin
percentage of the specific activity compared with that for N-acetyl-D-methionine taken as 100%, D-enantiomer [4]: 0%
